In patent US20190093170A1, “USE OF TRANSLATIONAL PROFILING TO IDENTIFY TARGET MOLECULES FOR THERAPEUTIC TREATMENT” (THE REGENTS OF THE UNIVERSITY OF CALIFORNIA, priority 2013, published 2019):

Tested on: PC3 human prostate cancer cells
Experiment: Ribosome profiling: translational efficiency (ribosome footprint vs RNA-seq read density);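 also: Per-gene footprint-to-mRNA density ratio averaged per codon over the coding sequence, scaled so the median gene equals 1.0 after excluding regulated genes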
Assay type: cell-based
Settings: for PP242 TrlEff: 3-hour treatment with PP242 (2.5 μM) in PC3 cells
Protocol: Given the critical role for mTOR in prostate cancer, PC3 human prostate cancer cells, in which mTOR is constitutively hyperactivated, were used to delineate translationally controlled gene expression networks upon complete or partial mTOR inhibition. Ribosome profiling was optimized to assess quantitatively ribosome occupancy genome-wide in cancer cells.
Cells were subsequently treated with cycloheximide (100 μg ml^−1; Sigma) and detergent lysis was performed in the dish. The lysate was treated with DNase and clarified, and a sample was taken for RNA-seq analysis. Lysates were subjected to ribosome footprinting by nuclease treatment. Ribosome-protected fragments were purified, and deep sequencing libraries were generated from these fragments, as well as from poly(A) mRNA purified from non-nuclease-treated lysates. These libraries were analyzed by sequencing on an Illumina GAII.
Ribosome footprint and RNA-seq sequencing reads were aligned against a library of transcripts from the UCSC Known Genes database GRCh37/hg19. The first 25 nucleotides of each read were aligned using Bowtie and this initial alignment was then extended to encompass the full fragment-derived portion of the sequencing read while excluding the linker sequence. Read density profiles were then constructed for the canonical transcript of each gene, using only reads with 0 or 1 total mismatches between the read sequence and the reference sequence, comprised of the transcript fragment followed by the linker sequence. Footprint reads were assigned to an A site nucleotide at position +15 to +17 of the alignment, based on the total fragment length; mRNA reads were assigned to the first nucleotide of the alignment. The average read density per codon was then computed for the coding sequence of each transcript, excluding the first 15 and last 5 codons, which can display atypical ribosome accumulation.
Average read density was used as a measure of mRNA abundance (RNA-seq reads) and of protein synthesis (ribosome profiling reads). For most analyses, genes were filtered to require at least 256 reads in the relevant RNA-seq samples. Translational efficiency was computed as the ratio of ribosome footprint read density to RNA-seq read density, scaled to normalize the translational efficiency of the median gene to 1.0 after excluding regulated genes (log 2 fold-change+1.5 after normalizing for the all-gene median). Changes in protein synthesis, mRNA abundance and translational efficiency were similarly computed as the ratio of read densities between different samples, normalized to give the median gene a ratio of 1.0. This normalization corrects for differences in the absolute number of sequencing reads obtained for different libraries.

CC(C)n1nc(-c2cc3cc(O)ccc3[nH]2)c2c(N)ncnc21 [PP242]
PP242 TrlEff (gene ACD): −1.02
TrlEff (gene ACTG1): −1.40
TrlEff (gene AGRN): −1.29
TrlEff (gene ALKBH7): −1.27
TrlEff (gene AP2A1): −1.32
TrlEff (gene ARD1A): −1.05
TrlEff (gene ATP5G2): −1.01
PP242 TrlEff (gene C17orf28): −0.20
TrlEff (gene C21orf66): −1.03
PP242 TrlEff (gene CCNA1): 0.66
TrlEff (gene CCNI): −1.33
TrlEff (gene CD44): −1.29
TrlEff (gene CIRBP): −1.08
TrlEff (gene CLPTM1): −1.13
TrlEff (gene COL6A2): −1.29
TrlEff (gene CRTAP): −2.50
PP242 TrlEff (gene DDX51): −0.51
PP242 TrlEff (gene DGCR2): 0.02
TrlEff (gene ECSIT): −1.06
PP242 TrlEff (gene EEF1A1): −3.53
TrlEff (gene EEF1A2): −1.94
TrlEff (gene EEF1D): −2.37
TrlEff (gene EEF1G): −2.26
TrlEff (gene EEF2): −3.60
TrlEff (gene EIF3H): −1.54
TrlEff (gene EIF3L): −1.47
TrlEff (gene EIF4B): −2.27
TrlEff (gene EVPL): −0.79
TrlEff (gene FAM83H): −1.11
TrlEff (gene FAM128B): −1.47
TrlEff (gene FASN): −1.42
TrlEff (gene GLTSCR2): −2.12
TrlEff (gene GNB2L1): −2.35
PP242 TrlEff (gene GTPBP3): −0.83
TrlEff (gene HNRNPA1): −2.12
TrlEff (gene HSPA8): −2.25
TrlEff (gene IMPDH2): −1.33
TrlEff (gene LAMA5): −0.94
TrlEff (gene LMF2): −1.36
PP242 TrlEff (gene MAPK6): −0.29
PP242 TrlEff (gene MAPKAPK2): 0.92
TrlEff (gene MTA1): −1.09
TrlEff (gene NCLN): −0.76
PP242 TrlEff (gene NFATC21P): 0.35
PP242 TrlEff (gene NR2F1): −0.09
TrlEff (gene PABPC1): −2.09
TrlEff (gene PABPC4): −1.98
TrlEff (gene PACS1): −1.09
TrlEff (gene PFDN5): −1.38
TrlEff (gene PGLS): −1.11
TrlEff (gene PGM1): −1.35
TrlEff (gene PNKP): −0.79
PP242 TrlEff (gene PRKD3): 0.68
TrlEff (gene PTGES2): −0.65
TrlEff (gene RABGGTB): −1.46
PP242 TrlEff (gene RBPJ): −0.03
TrlEff (gene RPL3): −2.44
TrlEff (gene RPL4): −1.50
TrlEff (gene RPL7): −2.02
TrlEff (gene RPL7A): −2.30
TrlEff (gene RPL9): −1.59
TrlEff (gene RPL10): −2.46
TrlEff (gene RPL10A): −2.16
TrlEff (gene RPL11): −2.31
TrlEff (gene RPL12): −2.95
TrlEff (gene RPL13): −1.56
TrlEff (gene RPL13A): −3.10
TrlEff (gene RPL15): −1.20
TrlEff (gene RPL18A): −2.63
TrlEff (gene RPL19): −1.35
TrlEff (gene RPL21): −2.45
TrlEff (gene RPL22): −1.64
TrlEff (gene RPL24): −1.41
TrlEff (gene RPL26): −2.00
TrlEff (gene RPL27): −1.23
TrlEff (gene RPL27A): −2.53
TrlEff (gene RPL28): −2.54
PP242 TrlEff (gene RPL28): −3.48
TrlEff (gene RPL31): −2.10
TrlEff (gene RPL32): −2.33
TrlEff (gene RPL34): −2.63
TrlEff (gene RPL36A): −1.98
TrlEff (gene RPL37A): −2.38
TrlEff (gene RPL39): −2.41
PP242 TrlEff (gene RPL39): −2.53
TrlEff (gene RPL41): −1.28
TrlEff (gene RPLP0): −1.61
TrlEff (gene RPLP1): −2.06
TrlEff (gene RPLP2): −2.10
TrlEff (gene RPS2): −2.25
TrlEff (gene RPS3): −2.16
TrlEff (gene RPS3A): −2.17
TrlEff (gene RPS4X): −2.06
TrlEff (gene RPS5): −2.25
TrlEff (gene RPS7): −1151
TrlEff (gene RPS9): −2.27
TrlEff (gene RPS12): −3.00
TrlEff (gene RPS13): −1.54
TrlEff (gene RPS14): −1.50
TrlEff (gene RPS15): −1.19
TrlEff (gene RPS15A): −2.31
TrlEff (gene RPS19): −2.34
TrlEff (gene RPS20): −2.46
PP242 TrlEff (gene RPS20): −2.78
TrlEff (gene RPS21): −2.09
TrlEff (gene RPS25): −2.13
TrlEff (gene RPS27): −2.71
PP242 TrlEff (gene RPS27): −3.35
TrlEff (gene RPS27A): −1.61
TrlEff (gene RPS28): −2.67
PP242 TrlEff (gene SDCCAG10): 0.23
TrlEff (gene SLC19A1): −1.07
TrlEff (gene TKT): −1.58
TrlEff (gene TPT1): −1.94
TrlEff (gene TSC2): −1.09
TrlEff (gene UBA52): −1.62
PP242 TrlEff (gene UBTD2): 0.27
PP242 TrlEff (gene UCHL5): 0.40
PP242 TrlEff (gene VHL): 0.52
TrlEff (gene VIM): −2.38
TrlEff (gene YB1): −2.30
